Experimental data: patent US20150105252A1, “SUBSTITUTED PYRAZOLES AS HERBICIDES” (E I DU PONT DE NEMOURS AND COMPANY, priority 2013, published 2015)

What was measured:
wheat [1] = assay: Test A preemergence; assay type: in vivo, Triticum aestivum; conditions: preemergence; for Wheat plant response rating (0 to 100 scale): 125 g ai/ha, visual injury approx. 10 days after treatment; for Wheat plant response rating: 500 g ai/ha, visual injury after approx. 10 days, 0 to 100 scale (0 no effect, 100 complete control)
Outline: (§1)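 Growth medium: loam soil blended with sand. Preemergence treatment used a directed soil spray right after planting; postemergence treatment targeted seedlings at one to two leaves (2–10 cm height). Response was judged by eye relative to untreated plants about 10 days later on a 0–100 control scale.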

crabgrass, large = assay: Test A postemergence; assay type: in vivo, Digitaria sanguinalis
Outline: as §1

foxtail, giant = assay: Test A postemergence; assay type: in vivo, Setaria faberii
Outline: as §1

morningglory = assay: Test A postemergence; assay type: in vivo, Ipomoea spp.
Outline: as §1

velvetleaf [2] = assay: Test A postemergence; assay type: in vivo, Abutilon theophrasti
Outline: as §1

corn [3] = assay: Test A postemergence; assay type: in vivo, Zea mays
Outline: as §1

pigweed = assay: Test C preemergence; assay type: in vivo, Amaranthus retroflexus; conditions: preemergence; for Plant response rating, Pigweed: 125 g ai/ha, scale 0 to 100, 0 = no effect, 100 = complete control
Outline: (§2)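 Seeds were sown in a loam soil–sand blend and sprayed preemergence with compounds formulated in a non-phytotoxic solvent mixture containing surfactant. Postemergence plants, grown in peat/vermiculite medium to 2–18 cm (1- to 4-leaf stage), received the same formulation. After 13 to 15 days in a greenhouse, injury was rated visually against controls (0 = no effect, 100 = complete control).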

ragweed [4] = assay: Test C preemergence; assay type: in vivo, Ambrosia elation; conditions: preemergence; for Plant response rating, Ragweed: 125 g ai/ha, scale 0 to 100, 0 = no effect, 100 = complete control
Outline: as §2

soybean [5] = assay: Test C preemergence; assay type: in vivo, Glycine max; conditions: preemergence; for Plant response rating, Soybean: 125 g ai/ha, scale 0 to 100, 0 = no effect, 100 = complete control
Outline: as §2

oilseed rape = assay: Test C preemergence; assay type: in vivo, Brassica napus; conditions: preemergence; for Plant response rating, Oilseed Rape: 125 g ai/ha, scale 0 to 100, 0 = no effect, 100 = complete control
Outline: as §2

wheat [6] = assay: Test C postemergence; assay type: in vivo, Triticum aestivum; conditions: postemergence; for Plant response rating, Wheat: 250 g ai/ha, scale 0 to 100 (0 no effect, 100 complete control); for Wheat plant response rating: scale 0 to 100
Outline: as §2

corn [7] = assay: Test C postemergence; assay type: in vivo, Zea mays; conditions: for Plant response rating (scale of 0 to 100 where 0 is no effect and 100 is complete control), Corn: Postemergence, 31 g ai/ha, visually evaluated after 13 to 15 days; for Corn plant response rating / Plant response rating, Corn: postemergence; for Corn plant response rating: 62 g ai/ha, scale 0 to 100
Outline: as §2

lambsquarters = assay: Test C postemergence; assay type: in vivo, Chenopodium album; conditions: for Plant response rating (scale of 0 to 100 where 0 is no effect and 100 is complete control), Lambsquarters: Postemergence, 31 g ai/ha, visually evaluated after 13 to 15 days; for Lambsquarters plant response rating / Plant response rating, Lambsquarters: postemergence; for Lambsquarters plant response rating: 62 g ai/ha, scale 0 to 100
Outline: as §2

ragweed [8] = assay: Test C postemergence; assay type: in vivo, Ambrosia elation; conditions: postemergence
Outline: as §2

soybean [9] = assay: Test C postemergence; assay type: in vivo, Glycine max; conditions: postemergence; for Plant response rating, Soybean: 250 g ai/ha, scale 0 to 100 (0 no effect, 100 complete control); for Soybean plant response rating: 125 g ai/ha, scale 0 to 100, 0 no effect, 100 complete control
Outline: as §2

waterhemp = assay: Test C postemergence; assay type: in vivo, Amaranthus rudis; conditions: postemergence; for Plant response rating, Waterhemp: 250 g ai/ha, scale 0 to 100 (0 no effect, 100 complete control); for Waterhemp plant response rating: scale 0 to 100
Outline: as §2

velvetleaf [10] = assay: Test C postemergence; assay type: in vivo, Abutilon theophrasti; conditions: postemergence; for Plant response rating, Velvetleaf: 250 g ai/ha, scale 0 to 100 (0 no effect, 100 complete control); for Velvetleaf plant response rating: scale 0 to 100
Outline: as §2

[11] = Postemergence, 500 g ai/ha, 0 to 100 scale (0 no effect, 100 complete control)
[12] = postemergence, 125 g ai/ha, about 10 days, visual rating on 0 to 100 scale (0 no effect, 100 complete control)
[13] = 31 g ai/ha, visual rating, scale 0 to 100 (0 no effect, 100 complete control), 13 to 15 days
[14] = 62 g ai/ha, scale 0 to 100 (0 no effect, 100 complete control), 13 to 15 days
[15] = 250 g ai/ha, scale 0 to 100, 0 is no effect, 100 is complete control
[16] = 250 g ai/ha, scale 0 to 100 (0 no effect, 100 complete control)
[17] = 125 g ai/ha, scale 0 to 100, 0 no effect, 100 complete control
[18] = Postemergence, 125 g ai/ha, 0 to 100 scale, 0 no effect, 100 complete control

## CCNC(=O)c1cc(CC)n(Cc2cc(C(F)(F)F)nn2C)n1 [Compound 154]
Wheat [1]
  Wheat plant response rating (0 to 100 scale): 0
  Wheat plant response rating: 100
crabgrass, large; [11]
  Crabgrass, Large plant response rating: 100
crabgrass, large; [12]
  Crabgrass, Large plant response rating: 100
foxtail, giant; [11]
  Foxtail, Giant plant response rating: 100
foxtail, giant; [12]
  Foxtail, Giant plant response rating: 100
morningglory; [11]
  Morningglory plant response rating: 100
morningglory; [12]
  Morningglory plant response rating: 100
Velvetleaf [2]; [11]
  Velvetleaf plant response rating: 100
Velvetleaf [2]; [12]
  Velvetleaf plant response rating: 80
Corn [3]; [11]
  Corn plant response rating: 100
Corn [3]; [12]
  Corn plant response rating: 40
pigweed; [13]
  Pigweed plant response rating: 85
pigweed; [14]
  Pigweed plant response rating: 98
pigweed; 13 to 15 days
  Plant response rating, Pigweed: 100
pigweed; [15]
  Pigweed plant response rating: 100
Ragweed [4]; [13]
  Ragweed plant response rating: 25
Ragweed [4]; [14]
  Ragweed plant response rating: 80
Ragweed [4]; 13 to 15 days
  Plant response rating, Ragweed: 98
Ragweed [4]; [15]
  Ragweed plant response rating: 98
Soybean [5]; [13]
  Soybean plant response rating: 35
Soybean [5]; [14]
  Soybean plant response rating: 80
Soybean [5]; 13 to 15 days
  Plant response rating, Soybean: 95
Soybean [5]; [15]
  Soybean plant response rating: 98
Oilseed rape; [13]
  Oilseed Rape plant response rating: 85
Oilseed rape; [14]
  Oilseed Rape plant response rating: 95
Oilseed rape; 13 to 15 days
  Plant response rating, Oilseed Rape: 95
Oilseed rape; [15]
  Oilseed Rape plant response rating: 95
Wheat [6]
  Plant response rating, Wheat: 10
  Wheat plant response rating: 5
Corn [7]
  Plant response rating (scale of 0 to 100 where 0 is no effect and 100 is complete control), Corn: 5
  Corn plant response rating: 5
Corn [7]; [16]
  Plant response rating, Corn: 10
Corn [7]; [17]
  Plant response rating, Corn: 10
lambsquarters
  Plant response rating (scale of 0 to 100 where 0 is no effect and 100 is complete control), Lambsquarters: 40
  Lambsquarters plant response rating: 50
lambsquarters; [16]
  Plant response rating, Lambsquarters: 75
lambsquarters; [17]
  Plant response rating, Lambsquarters: 75
Ragweed [8]; [16]
  Plant response rating, Ragweed: 35
Ragweed [8]; [17]
  Plant response rating, Ragweed: 15
Soybean [9]
  Plant response rating, Soybean: 90
  Soybean plant response rating: 85
waterhemp
  Plant response rating, Waterhemp: 85
  Waterhemp plant response rating: 65
Velvetleaf [10]
  Plant response rating, Velvetleaf: 55
  Velvetleaf plant response rating: 25

## CCCNC(=O)c1cc(OCC)n(Cc2ccnc(C(F)(F)F)c2)n1 [Compound 187]
Wheat [1]
  Wheat plant response rating (0 to 100 scale): 80
  Wheat plant response rating: 100
crabgrass, large; [11]
  Crabgrass, Large plant response rating: 90
crabgrass, large; [12]
  Crabgrass, Large plant response rating: 90
foxtail, giant; [11]
  Foxtail, Giant plant response rating: 90
foxtail, giant; [12]
  Foxtail, Giant plant response rating: 90
morningglory; [18]
  Morningglory plant response rating: 40
morningglory; [11]
  Morningglory plant response rating: 100
Velvetleaf [2]; [18]
  Velvetleaf plant response rating: 90
Velvetleaf [2]; [11]
  Velvetleaf plant response rating: 100
Corn [3]; [11]
  Corn plant response rating: 100
Corn [3]; [12]
  Corn plant response rating: 80
pigweed; [13]
  Pigweed plant response rating: 70
pigweed; [14]
  Pigweed plant response rating: 100
pigweed; 13 to 15 days
  Plant response rating, Pigweed: 100
pigweed; [15]
  Pigweed plant response rating: 100
Ragweed [4]; [13]
  Ragweed plant response rating: 80
Ragweed [4]; [14]
  Ragweed plant response rating: 100
Ragweed [4]; 13 to 15 days
  Plant response rating, Ragweed: 98
Ragweed [4]; [15]
  Ragweed plant response rating: 100
Soybean [5]; [13]
  Soybean plant response rating: 85
Soybean [5]; [14]
  Soybean plant response rating: 95
Soybean [5]; 13 to 15 days
  Plant response rating, Soybean: 98
Soybean [5]; [15]
  Soybean plant response rating: 98
Oilseed rape; [13]
  Oilseed Rape plant response rating: 50
Oilseed rape; [14]
  Oilseed Rape plant response rating: 90
Oilseed rape; 13 to 15 days
  Plant response rating, Oilseed Rape: 95
Oilseed rape; [15]
  Oilseed Rape plant response rating: 100
Wheat [6]
  Plant response rating, Wheat: 15
  Wheat plant response rating: 10
Corn [7]
  Plant response rating (scale of 0 to 100 where 0 is no effect and 100 is complete control), Corn: 5
  Corn plant response rating: 5
Corn [7]; [16]
  Plant response rating, Corn: 65
Corn [7]; [17]
  Plant response rating, Corn: 60
lambsquarters
  Plant response rating (scale of 0 to 100 where 0 is no effect and 100 is complete control), Lambsquarters: 60
  Lambsquarters plant response rating: 75
lambsquarters; [16]
  Plant response rating, Lambsquarters: 90
lambsquarters; [17]
  Plant response rating, Lambsquarters: 75
Ragweed [8]; [16]
  Plant response rating, Ragweed: 85
Ragweed [8]; [17]
  Plant response rating, Ragweed: 50
Soybean [9]
  Plant response rating, Soybean: 98
  Soybean plant response rating: 95
waterhemp
  Plant response rating, Waterhemp: 95
  Waterhemp plant response rating: 70
Velvetleaf [10]
  Plant response rating, Velvetleaf: 65
  Velvetleaf plant response rating: 55

## CCCc1cc(C(=O)NC2CC2)nn1Cc1cc(C(F)(F)F)nn1C [Compound 202]
Wheat [1]
  Wheat plant response rating (0 to 100 scale): 30
  Wheat plant response rating: 100
crabgrass, large; [11]
  Crabgrass, Large plant response rating: 100
crabgrass, large; [12]
  Crabgrass, Large plant response rating: 90
foxtail, giant; [11]
  Foxtail, Giant plant response rating: 90
foxtail, giant; [12]
  Foxtail, Giant plant response rating: 90
morningglory; [18]
  Morningglory plant response rating: 70
morningglory; [11]
  Morningglory plant response rating: 90
Velvetleaf [2]; [18]
  Velvetleaf plant response rating: 70
Velvetleaf [2]; [11]
  Velvetleaf plant response rating: 90
Corn [3]; [11]
  Corn plant response rating: 90
Corn [3]; [12]
  Corn plant response rating: 80
pigweed; [13]
  Pigweed plant response rating: 100
pigweed; [14]
  Pigweed plant response rating: 100
pigweed; 13 to 15 days
  Plant response rating, Pigweed: 100
pigweed; [15]
  Pigweed plant response rating: 100
Ragweed [4]; [13]
  Ragweed plant response rating: 75
Ragweed [4]; [14]
  Ragweed plant response rating: 95
Ragweed [4]; 13 to 15 days
  Plant response rating, Ragweed: 95
Ragweed [4]; [15]
  Ragweed plant response rating: 100
Soybean [5]; [13]
  Soybean plant response rating: 65
Soybean [5]; [14]
  Soybean plant response rating: 70
Soybean [5]; 13 to 15 days
  Plant response rating, Soybean: 85
Soybean [5]; [15]
  Soybean plant response rating: 98
Oilseed rape; [13]
  Oilseed Rape plant response rating: 100
Oilseed rape; [14]
  Oilseed Rape plant response rating: 100
Oilseed rape; 13 to 15 days
  Plant response rating, Oilseed Rape: 100
Oilseed rape; [15]
  Oilseed Rape plant response rating: 100
Wheat [6]
  Plant response rating, Wheat: 5
  Wheat plant response rating: 5
Corn [7]
  Plant response rating (scale of 0 to 100 where 0 is no effect and 100 is complete control), Corn: 5
  Corn plant response rating: 10
Corn [7]; [16]
  Plant response rating, Corn: 25
Corn [7]; [17]
  Plant response rating, Corn: 15
lambsquarters
  Plant response rating (scale of 0 to 100 where 0 is no effect and 100 is complete control), Lambsquarters: 70
  Lambsquarters plant response rating: 80
lambsquarters; [16]
  Plant response rating, Lambsquarters: 90
lambsquarters; [17]
  Plant response rating, Lambsquarters: 85
Ragweed [8]; [16]
  Plant response rating, Ragweed: 80
Ragweed [8]; [17]
  Plant response rating, Ragweed: 65
Soybean [9]
  Plant response rating, Soybean: 98
  Soybean plant response rating: 98
waterhemp
  Plant response rating, Waterhemp: 90
  Waterhemp plant response rating: 85
Velvetleaf [10]
  Plant response rating, Velvetleaf: 65
  Velvetleaf plant response rating: 40
